Data on 47 compounds can be found in patent publication US7338950B2, “Amide compounds as ion channel ligands and uses thereof” (Renovis, Inc., priority 2003, dated 2008).

Structures are written as SMILES.

In this assay the test system is VR1 receptor (293 cells expressing capsaicin-insensitive VR1 receptor variants). In words: High throughput screening of VR1 antagonists using a calcium imaging assay (Fura2, pH 5.1 stimulus).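 Also: Fura2 ratiometric fluorescence read every 4 s over 3 min, response taken as peak ratio minus baseline before pre-treatment, compound pre-treatment preceding acid challenge.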 The note with it: 1 uM compound; inhibition of calcium ion influx.

From the text: A dual wavelength ratiometric dye, Fura2, was used as an indicator of relative levels of calcium ions in a 96 well format using a bench top scanning fluorometer with integrated fluidics and temperature control (Flex Station, Molecular Devices).
A dual wavelength ratiometric dye, Fura2, was used as an indicator of relative levels of [Ca2+] in a 96 well format using a bench top scanning fluorometer with integrated fluidics and temperature control (Flex Station, Molecular Devices).
293 cells were grown on PDL coated 96-well black-walled plates, in the presence of a DMEM medium containing 5% Penstrep, 5% Glutamax, 200 ug/mL Hygromycin, 5 μg/mL Blasticide and 10% heat inactivated FBS. Prior to assay, the cells were loaded with 5 μg/mL Fura2 in normal saline solution at 37° C. for 40 minutes. Cells were then washed with normal saline to remove the dye.
The assay consists of two stages; a pre-treatment phase followed by a treatment phase.
50 μl of a compound solution was added to the cells (Pre-treatment). Immediately following, 50 μl of the test compound in a saline solution at pH 5.1 was added. […] Changes in wavelength measurements were made throughout the course of the experiment in 4 second intervals over a period of 3 minutes. Responses were measured as peak fluorescence ratio after test compound addition minus baseline fluorescence ratio prior to pre-treatment and were calculated using SoftMaxPro softwareData were expressed as percentage inhibition calculated using Excel as follows:

For the compound `O=C(Nc1ccc(N2CCOCC2)c(Cl)c1)c1ccc(-c2ncccc2Cl)c(F)c1` [Compound 1200], the “% Inhibition @ 1 uM” value is “++++ (compound exhibited 75% or greater inhibition of calcium ion influx induced by capsaicin stimulation)”. Then `CN1CCCc2ccc(NC(=O)c3ccc(-c4ncccc4Cl)c(F)c3)cc21` [Compound 1203], with “+ (compound exhibited 0-25% inhibition of calcium ion influx induced by capsaicin stimulation)”; and `COc1cc(C(=O)NC(C)(C)C)ccc1-c1ncccc1Cl` [Compound 1204], with “+ (compound exhibited 0-25% inhibition of calcium ion influx induced by capsaicin stimulation)”; and `COc1cc(C(=O)Nc2ccccc2)ccc1-c1ncccc1Cl` [Compound 1206], with “+ (compound exhibited 0-25% inhibition of calcium ion influx induced by capsaicin stimulation)”.

For `COc1ccc(NC(=O)c2ccc(-c3ncccc3Cl)c(OC)c2)cc1` [Compound 1207], the “% Inhibition @ 1 uM” value is “+ (compound exhibited 0-25% inhibition of calcium ion influx induced by capsaicin stimulation)”. Then `COc1cc(C(=O)Nc2ccccc2C#N)ccc1-c1ncccc1Cl` [Compound 1209], with “+ (compound exhibited 0-25% inhibition of calcium ion influx induced by capsaicin stimulation)”. Consider `COc1cc(C(=O)Nc2cccc(Cl)c2)ccc1-c1ncccc1Cl` [Compound 1210], for which the “% Inhibition @ 1 uM” value is listed as “+ (compound exhibited 0-25% inhibition of calcium ion influx induced by capsaicin stimulation)”. `COc1ccccc1NC(=O)c1ccc(-c2ncccc2Cl)c(OC)c1` [Compound 1211]: the “% Inhibition @ 1 uM” value is given as “++ (compound exhibited 25-50% inhibition of calcium ion influx induced by capsaicin stimulation)”. Take `CCCc1ccccc1NC(=O)c1ccc(-c2ncccc2Cl)c(OC)c1` [Compound 1212]: the “% Inhibition @ 1 uM” value was “++ (compound exhibited 25-50% inhibition of calcium ion influx induced by capsaicin stimulation)”. As for `COc1cccc(NC(=O)c2ccc(-c3ncccc3Cl)c(OC)c2)c1` [Compound 1213], the “% Inhibition @ 1 uM” value is “++ (compound exhibited 25-50% inhibition of calcium ion influx induced by capsaicin stimulation)”.

With `COc1cc(C(=O)Nc2cccc(Cl)c2Cl)ccc1-c1ncccc1Cl` [Compound 1216], the “% Inhibition @ 1 uM” value is “++++ (compound exhibited 75% or greater inhibition of calcium ion influx induced by capsaicin stimulation)”. For `COc1cc(C(=O)Nc2cccc(C#N)c2)ccc1-c1ncccc1Cl` [Compound 1218], the “% Inhibition @ 1 uM” value was “++++ (compound exhibited 75% or greater inhibition of calcium ion influx induced by capsaicin stimulation)”. Turning to `CCCCc1ccc(NC(=O)c2ccc(-c3ncccc3Cl)c(OC)c2)cc1` [Compound 1221], the “% Inhibition @ 1 uM” value is given as “++ (compound exhibited 25-50% inhibition of calcium ion influx induced by capsaicin stimulation)”.

As to `COc1cc(C(=O)Nc2ccc(C)cc2C)ccc1-c1ncccc1Cl` [Compound 1223], the “% Inhibition @ 1 uM” value is reported as “++++ (compound exhibited 75% or greater inhibition of calcium ion influx induced by capsaicin stimulation)”.

For the compound `COc1cc(C(=O)Nc2ccc(F)cc2[N+](=O)[O-])ccc1-c1ncccc1Cl` [Compound 1227], the “% Inhibition @ 1 uM” value is “++++ (compound exhibited 75% or greater inhibition of calcium ion influx induced by capsaicin stimulation)”.

On to `COc1ccc(NC(=O)c2ccc(-c3ncccc3Cl)c(OC)c2)cc1Cl` [Compound 1229], for which the “% Inhibition @ 1 uM” value is “+++ (compound exhibited 50-75% inhibition of calcium ion influx induced by capsaicin stimulation)”. Turning to `COc1cc(C(=O)Nc2ccc(C(F)(F)F)cc2)ccc1-c1ncccc1Cl` [Compound 1230], the “% Inhibition @ 1 uM” value is “++ (compound exhibited 25-50% inhibition of calcium ion influx induced by capsaicin stimulation)”.

For `COc1cc(C(=O)Nc2ccc(Cl)c(C(F)(F)F)c2)ccc1-c1ncccc1Cl` [Compound 1231], the “% Inhibition @ 1 uM” value is listed as “+ (compound exhibited 0-25% inhibition of calcium ion influx induced by capsaicin stimulation)”.

With `COc1cc(C(=O)Nc2cc(C)cc(C)n2)ccc1-c1ncccc1Cl` [Compound 1234], the “% Inhibition @ 1 uM” value is “+ (compound exhibited 0-25% inhibition of calcium ion influx induced by capsaicin stimulation)”.

In the case of `COc1cc(C(=O)Nc2ccncc2)ccc1-c1ncccc1Cl` [Compound 1235], the “% Inhibition @ 1 uM” value was “++++ (compound exhibited 75% or greater inhibition of calcium ion influx induced by capsaicin stimulation)”. Then `COc1cc(C(=O)Nc2cccnc2)ccc1-c1ncccc1Cl` [Compound 1236], with “+ (compound exhibited 0-25% inhibition of calcium ion influx induced by capsaicin stimulation)”; and `COc1cc(C(=O)Nc2cc(C)ccn2)ccc1-c1ncccc1Cl` [Compound 1240], with “++++ (compound exhibited 75% or greater inhibition of calcium ion influx induced by capsaicin stimulation)”. Then `COc1cc(C(=O)Nc2ccncn2)ccc1-c1ncccc1Cl` [Compound 1242], with “++ (compound exhibited 25-50% inhibition of calcium ion influx induced by capsaicin stimulation)”. Then `COc1cc(C(=O)Nc2ccc(Br)cn2)ccc1-c1ncccc1Cl` [Compound 1243], with “+ (compound exhibited 0-25% inhibition of calcium ion influx induced by capsaicin stimulation)”.

On to `COc1ccc(NC(=O)c2ccc(-c3ncccc3Cl)c(OC)c2)cn1` [Compound 1247], for which the “% Inhibition @ 1 uM” value is reported as “++ (compound exhibited 25-50% inhibition of calcium ion influx induced by capsaicin stimulation)”. Take `COc1cc(C(=O)Nc2ccnc(Cl)c2)ccc1-c1ncccc1Cl` [Compound 1248]: the “% Inhibition @ 1 uM” value was “+ (compound exhibited 0-25% inhibition of calcium ion influx induced by capsaicin stimulation)”. Then `COc1cc(C(=O)Nc2cc(C)nc(C)n2)ccc1-c1ncccc1Cl` [Compound 1249], with “+ (compound exhibited 0-25% inhibition of calcium ion influx induced by capsaicin stimulation)”; and `COc1cc(C(=O)Nc2ccc3ncccc3c2)ccc1-c1ncccc1Cl` [Compound 1250], with “++++ (compound exhibited 75% or greater inhibition of calcium ion influx induced by capsaicin stimulation)”. As for `CCn1c2ccccc2c2cc(NC(=O)c3ccc(-c4ccccc4Cl)c(OC)c3)ccc21` [Compound 1251], the “% Inhibition @ 1 uM” value was “+ (compound exhibited 0-25% inhibition of calcium ion influx induced by capsaicin stimulation)”.

Consider `COc1cc(C(=O)Nc2nccs2)ccc1-c1ncccc1Cl` [Compound 1252], for which the “% Inhibition @ 1 uM” value was “+ (compound exhibited 0-25% inhibition of calcium ion influx induced by capsaicin stimulation)”. With `COc1cc(C(=O)Nc2ccc3ccccc3c2)ccc1-c1ncccc1Cl` [Compound 1253], the “% Inhibition @ 1 uM” value is “++++ (compound exhibited 75% or greater inhibition of calcium ion influx induced by capsaicin stimulation)”. For the compound `COc1ccc(NC(=O)c2ccc(-c3ncccc3Cl)c(OC)c2)cc1OC` [Compound 1257], the “% Inhibition @ 1 uM” value is reported as “+ (compound exhibited 0-25% inhibition of calcium ion influx induced by capsaicin stimulation)”. For `COc1cc(C(=O)Nc2cccc(C(=O)O)c2)ccc1-c1ncccc1Cl` [Compound 1258], the “% Inhibition @ 1 uM” value is “+ (compound exhibited 0-25% inhibition of calcium ion influx induced by capsaicin stimulation)”. Regarding `COc1cc(C(=O)Nc2ccc(Cl)c(C(=O)O)c2)ccc1-c1ncccc1Cl` [Compound 1259], the “% Inhibition @ 1 uM” value was “++++ (compound exhibited 75% or greater inhibition of calcium ion influx induced by capsaicin stimulation)”. Consider `COc1cc(C(=O)Nc2cc(OC)c(OC)c(OC)c2)ccc1-c1ncccc1Cl` [Compound 1263], for which the “% Inhibition @ 1 uM” value is on record as “++++ (compound exhibited 75% or greater inhibition of calcium ion influx induced by capsaicin stimulation)”.

Regarding `COc1cc(C(=O)Nc2ccc3cn[nH]c3c2)ccc1-c1ncccc1Cl` [Compound 1264], the “% Inhibition @ 1 uM” value is given as “++ (compound exhibited 25-50% inhibition of calcium ion influx induced by capsaicin stimulation)”.

As for `COc1cc(C(=O)Nc2ccc(C#N)c(Cl)c2)ccc1-c1ncccc1Cl` [Compound 1265], the “% Inhibition @ 1 uM” value is “++++ (compound exhibited 75% or greater inhibition of calcium ion influx induced by capsaicin stimulation)”. For `COc1cc(C(=O)Nc2cccc(C(F)(F)F)c2)ccc1-c1ncccc1Cl` [Compound 1267], the “% Inhibition @ 1 uM” value is given as “++ (compound exhibited 25-50% inhibition of calcium ion influx induced by capsaicin stimulation)”. Take `COc1cc(C(=O)Nc2cccc(OC(F)(F)F)c2)ccc1-c1ncccc1Cl` [Compound 1269]: the “% Inhibition @ 1 uM” value is listed as “+ (compound exhibited 0-25% inhibition of calcium ion influx induced by capsaicin stimulation)”. In the case of `COc1cc(C(=O)Nc2cccc(OC(C)C)c2)ccc1-c1ncccc1Cl` [Compound 1270], the “% Inhibition @ 1 uM” value is given as “+ (compound exhibited 0-25% inhibition of calcium ion influx induced by capsaicin stimulation)”. As to `COc1cc(C(=O)Nc2ccc(F)c(F)c2)ccc1-c1ncccc1Cl` [Compound 1271], the “% Inhibition @ 1 uM” value is “+++ (compound exhibited 50-75% inhibition of calcium ion influx induced by capsaicin stimulation)”. Regarding `CCOc1ccc(NC(=O)c2ccc(-c3ncccc3Cl)c(OC)c2)cc1` [Compound 1273], the “% Inhibition @ 1 uM” value is reported as “+ (compound exhibited 0-25% inhibition of calcium ion influx induced by capsaicin stimulation)”. For the compound `COc1cc(C(=O)Nc2ccc(OC)c(C(F)(F)F)c2)ccc1-c1ncccc1Cl` [Compound 1275], the “% Inhibition @ 1 uM” value was “++ (compound exhibited 25-50% inhibition of calcium ion influx induced by capsaicin stimulation)”.

On to `COc1cc(C(=O)Nc2ccc(N3CCOCC3)c(Cl)c2)ccc1-c1ncccc1Cl` [Compound 1276], for which the “% Inhibition @ 1 uM” value is given as “+ (compound exhibited 0-25% inhibition of calcium ion influx induced by capsaicin stimulation)”. Take `COc1cc(C(=O)Nc2ccc(-c3cnco3)cc2)ccc1-c1ncccc1Cl` [Compound 1277]: the “% Inhibition @ 1 uM” value is “+++ (compound exhibited 50-75% inhibition of calcium ion influx induced by capsaicin stimulation)”.

`COc1cc(C(=O)Nc2ccc(Cl)cc2S(=O)(=O)O)ccc1-c1ncccc1Cl` [Compound 1278]: the “% Inhibition @ 1 uM” value was “+ (compound exhibited 0-25% inhibition of calcium ion influx induced by capsaicin stimulation)”. For `CCN(CC)CCOC(=O)c1ccc(NC(=O)c2ccc(-c3ncccc3Cl)cc2)cc1` [Compound 1282], the “% Inhibition @ 1 uM” value is recorded as “+ (compound exhibited 0-25% inhibition of calcium ion influx induced by capsaicin stimulation)”.
